US8343963B2, “Sulfamoyl-phenyl-ureido compounds and their use as medicament” (4SC AG, priority 2009, dated 2013)
Converted amounts (≈) assume the structure as drawn. Like-named read-outs stand apart in the source and are kept apart here.

Assays:
[1] = system: multiresistant Dd2 strain of Plasmodium falciparum; experiment: Antiplasmodial activity against Dd2 strain of Plasmodium falciparum ([8-3H]hypoxanthine incorporation); type: cell-based; conditions: 66 h, P. falciparum Dd2, 48 h + 18 h with [8-3H]hypoxanthine, 50% parasite growth inhibition, read-out: Antiplasmodia activity (IC50 class)
Method: For the determination of the antiplasmodial activity of the compounds described above, the multiresistant Dd2 strain of Plasmodium falciparum was used. The incorporation of [8-^3H]hypoxanthine into the parasitic nucleic acids was measured. The plasmodia were incubated at 0.3% parasitaemia and an erythrocyte haematocrit of 2.5% in the presence of different concentrations of the compounds in a final volume of 200 μl. The medium employed was RPMI 1640 which contained 10% of heat-treated human serum and 3 mg/l of gentamycin. In the incubations, the concentrations of the compounds varied from 0.001 to 100 μM. After 48 h, each batch was treated with 50 μl of [8-^3H]hypoxanthine (1 mCi/ml) and incubated for a further 18 h. The cells were filtered off, washed and suspended in 20 μl of scintillation fluid. The radioactive hypoxanthine absorbed by the parasites was then quantified using a scintillation counter. The results were presented graphically and the IC50 value was determined using a fitting function. The value IC50, the ‘inhibition constant’, indicates the value in μMol/l at which 50% parasite growth inhibition occurs (R. E. Desjardins, et al., Antimicrobiol. Agent Chemother. 16, pp. 710-718, 1979; J. D. Chulay, et al., Exp. Parasitol. 55, pp. 138-146, 1983).

[2] = In vitro clearance using human liver microsomes; type: in vitro ADME; conditions: human liver microsomes 0.5 mg/ml, 1 μM compound, 37° C., 0-30 min
Method: These experiments were performed at Nikem Research (Via Zambeletti 25; Baranzate, Milan, Italy). Test compounds in duplicate at the final concentration of 1 μM were dissolved in DMSO and pre-incubated for 10 min at 37° C. in phosphate buffer pH 7.4, 3 mM MgCl2, with human liver microsomes at the final concentration of 0.5 mg/ml. After the pre-incubation period, reaction was started by adding the cofactor mixture (NADP, Glc6P, G6P-DH); samples were taken at time 0, 5, 10, 15, 20 and 30 min and added to acetonitrile to quench the metabolic reaction, centrifuged and supernatant analysed and quantified by HPLC/MS. A control sample without cofactors was always added in order to check the chemical stability of test compounds. 7-ethoxycoumarin was added as reference standard. A fixed concentration of verapamil was added in every sample as internal standard for HPLC/MS. The concentration of the remaining compound at different times was determined by HPLC/MS. The rate constant, k (min^−1) derived for the exponential decay equation (peak area vs time) was used to calculate the rate of intrinsic clearance (Cli) of the compounds using the following equations: Cli (μl/min/mg compound)=k×V; where: V (μl/mg compound)=incubation volume/mg compound added. In table 3 the clearance (in vitro metabolic stability) classification was as follows: Cli<10=compound stable; Cli between 10 and 60=low metabolism; Cli between 60 and 600=medium metabolism Cli>600=high metabolism.

[3] = Solubility and solubility-range determination in 50 mM phosphate buffer at different pH; type: physicochemical; conditions: aqueous buffer, kinetic from dmso stock, 1% DMSO, 23° C., read-out: Solubility or solubility range
Method: The compounds were dissolved in DMSO at a concentration of 20 mg/ml. These stock solutions were further diluted 1:1 with DMSO (50 μl solution+50 μl DMSO) in seven steps. Subsequently, these solutions were diluted 1:100 (5 μl DMSO-stock+495 μl 50 mM phosphate buffer) in all four pH buffers (respectively: pH=4; pH=6; pH=7.4; pH=9) resulting in a final DMSO concentration of 1% in the buffers. These dilutions were vigorously mixed and transferred into 96-well reading plate. The plates were incubated in a shaker (600 rpm) at 23° C. for 24 hours. After that, the contents of the wells were mixed with a pipette and optical density (OD) was recorded at wavelengths of 550 nm; 600 nm; 650 nm and 700 nm in the Tecan Sunrise plate reader. The cut-off OD sum for an undissolved concentration of a compound was defined as follows: Cut off OD sum=mean blank OD+0.050 OD. For the determination of the solubility range, the following rule was applied: OD>cut off=>compound not dissolved at this concentration OD<cut-off=>compound dissolved at this concentration For the determination of the solubility, a titration curve (OD/concentration) was prepared and the concentrations were determined based on the measured OD of the mixture supernatant after centrifugation. The solubility values are given in μg/ml (table 3).

solubility at 24 h ([3]; pH 4, 50 mM phosphate buffer) [µg/mL] | solubility at 24 h ([3]; pH 6, 50 mM phosphate buffer) [µg/mL] | solubility at 24 h ([3]; pH 7.4, 50 mM phosphate buffer) [µg/mL] | solubility at 24 h ([3]; pH 9, 50 mM phosphate buffer) [µg/mL] | SMILES | IC50 [1] [nM] | In vitro metabolism as determined from Cli [2]
– | – | – | – | CCCCN1CCN(C(=N)c2cccc(NC(=O)Nc3ccc(S(N)(=O)=O)cc3)c2)CC1 [Compound 1, 4-(3-(3-((4-butylpiperazin-1-yl)(imino)methyl)phenyl)ureido)benzenesulfonamide] | ≥ 1000 | low (Cli between 10 and 60=low metabolism)
– | – | – | – | CCCCN1CCN(C(=N)c2cccc(NC(=O)Nc3ccc(S(=O)(=O)Nc4ccc(S(N)(=O)=O)cc4)cc3)c2)CC1 [Compound 23, 4-(3-(3-((4-butylpiperazin-1-yl)(imino)methyl)phenyl)ureido)-N-(4-sulfamoylphenyl)benzenesulfonamide] | 210 to 990 | low (Cli between 10 and 60=low metabolism)
960 (≈ 1530 µM) | 960 (≈ 1530 µM) | 750 (≈ 1190 µM) | 540 (≈ 860 µM) | CCCCN1CCN(C(=N)c2cccc(NC(=O)Nc3ccc(S(=O)(=O)NCc4ccc(S(N)(=O)=O)cc4)cc3)c2)CC1 [Compound 34, 4-(3-(3-((4-butylpiperazin-1-yl)(imino)methyl)phenyl)ureido)-N-(4-sulfamoylbenzyl)benzenesulfonamide] | < 20 | medium (Cli between 60 and 600=medium metabolism)
– | – | – | – | CCN1CCN(C(=N)c2cccc(NC(=O)Nc3ccc(S(=O)(=O)NCc4ccc(S(N)(=O)=O)cc4)cc3)c2)CC1 [Compound 37, 4-(3-(3-((4-ethylpiperazin-1-yl)(imino)methyl)phenyl)ureido)-N-(4-sulfamoylbenzyl)benzenesulfonamide] | 20 to 200 | medium (Cli between 60 and 600=medium metabolism)
> 200 | > 200 | > 200 | > 200 | CCCN1CCN(C(=N)c2cccc(NC(=O)Nc3ccc(S(=O)(=O)NCc4ccc(S(N)(=O)=O)cc4)cc3)c2)CC1 [Compound 38, 4-(3-(3-(imino(4-propylpiperazin-1-yl)methyl)phenyl)ureido)-N-(4-sulfamoylbenzyl)benzenesulfonamide] | < 20 | medium (Cli between 60 and 600=medium metabolism)
– | – | – | – | CCCCN1CCN(C(=N)c2cccc(NC(=O)Nc3ccc(S(=O)(=O)N4Cc5ccc(S(N)(=O)=O)cc5C4)cc3)c2)CC1 [Compound 41, 2-(4-(3-(3-((4-butylpiperazin-1-yl)(imino)methyl)phenyl)ureido)phenylsulfonyl)isoindoline-5-sulfonamide] | 20 to 200 | medium (Cli between 60 and 600=medium metabolism)
– | – | – | – | N=C(c1cccc(NC(=O)Nc2ccc(S(=O)(=O)NCc3ccc(S(N)(=O)=O)cc3)cc2)c1)N1CCOCC1 [Compound 43, 4-(3-(3-(imino (morpholino)methyl)phenyl)ureido)-N-(4-sulfamoylbenzyl)benzenesulfonamide] | 20 to 200 | medium (Cli between 60 and 600=medium metabolism)
> 200 | > 200 | > 200 | > 200 | N=C(c1cccc(NC(=O)Nc2ccc(S(=O)(=O)NCc3ccc(S(N)(=O)=O)cc3)cc2)c1)N1CCNCC1 [Compound 52, 4-(3-(3-(imino(piperazin-1-yl)methyl)phenyl)ureido)-N-(4-sulfamoylbenzyl)benzenesulfonamide] | 20 to 200 | low (Cli between 10 and 60=low metabolism)
– | – | – | – | CN1CCN(C(=N)c2cccc(NC(=O)Nc3ccc(S(=O)(=O)NCc4ccc(S(N)(=O)=O)cc4)cc3)c2)CC1 [Compound 53, 4-(3-(3-(imino(4-methylpiperazin-1-yl)methyl)phenyl)ureido)-N-(4-sulfamoylbenzyl)benzenesulfonamide] | 210 to 990 | low (Cli between 10 and 60=low metabolism)
– | – | – | – | CC(C)N1CCN(C(=N)c2cccc(NC(=O)Nc3ccc(S(=O)(=O)NCc4ccc(S(N)(=O)=O)cc4)cc3)c2)CC1 [Compound 54, 4-(3-(3-(imino(4-isopropylpiperazin-1-yl)methyl)phenyl)ureido)-N-(4-sulfamoylbenzyl)benzenesulfonamide] | 20 to 200 | medium (Cli between 60 and 600=medium metabolism)
– | – | – | – | CCCCN1CCN(C(=N)c2cccc(NC(=O)Nc3ccc(S(=O)(=O)NCc4ccc(S(N)(=O)=O)cc4)cc3)c2)CC1=O [Compound 63, 4-(3-(3-((4-butyl-3-oxopiperazin-1-yl)(imino)methyl)phenyl)ureido)-N-(4-sulfamoylbenzyl)benzenesulfonamide] | < 20 | medium (Cli between 60 and 600=medium metabolism)
– | – | – | – | CN(C)C(=N)c1cccc(NC(=O)Nc2ccc(S(=O)(=O)NCc3ccc(S(N)(=O)=O)cc3)cc2)c1 [Compound 64, N,N-dimethyl-3-(3-(4-(N-(4-sulfamoylbenzyl)sulfamoyl)phenyl)ureido)benzimidamide] | 210 to 990 | low (Cli between 10 and 60=low metabolism)
– | – | – | – | N#CCCN1CCN(C(=N)c2cccc(NC(=O)Nc3ccc(S(=O)(=O)NCc4ccc(S(N)(=O)=O)cc4)cc3)c2)CC1 [Compound 65, 4-(3-(3-((4-(2-cyanoethyl)piperazin-1-yl)(imino)methyl)phenyl)ureido)-N-(4-sulfamoylbenzyl)benzene sulfonamide] | 210 to 990 | medium (Cli between 60 and 600=medium metabolism)
– | – | – | – | N=C(c1cccc(NC(=O)Nc2ccc(S(=O)(=O)NCc3ccc(S(N)(=O)=O)cc3)cc2)c1)N1CCN(CC2CC2)CC1 [Compound 66, 4-(3-(3-((4-(cyclopropylmethyl)piperazin-1-yl)(imino)methyl)phenyl)ureido)-N-(4-sulfamoylbenzyl)benzene sulfonamide] | < 20 | medium (Cli between 60 and 600=medium metabolism)
– | – | – | – | COCCN1CCN(C(=N)c2cccc(NC(=O)Nc3ccc(S(=O)(=O)NCc4ccc(S(N)(=O)=O)cc4)cc3)c2)CC1 [Compound 69, 4-(3-(3-(imino(4-(2-methoxyethyl)piperazin-1-yl)methyl)phenyl)ureido)-N-(4-sulfamoylbenzyl)benzene sulfonamide] | 20 to 200 | medium (Cli between 60 and 600=medium metabolism)
– | – | – | – | CCCCN1CCN(C(=N)c2cccc(NC(=O)Nc3ccc(S(=O)(=O)NCc4ccc(S(N)(=O)=O)s4)cc3)c2)CC1 [Compound 70, 5-((4-(3-(3-((4-butylpiperazin-1-yl)(imino)methyl)phenyl)ureido)phenylsulfonamido)methyl)thiophene-2-sulfonamide] | 20 to 200 | medium (Cli between 60 and 600=medium metabolism)
